Assay results reported in the supplement of paper PMC10307832.

How the values were obtained:
Experiment in all cases: relative viability (nuclei count vs DMSO), 5 days (fraction); higher = more cells survive
201T = tested on: 201T
Procedure, shortened: (§1)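 Each reported value is a median over duplicate plates. It expresses relative viability: treated-well nuclei count divided by vehicle-well nuclei count. Lung cancer cell lines in 1536-well plates were dosed by pin tool a day after seeding, alone with one drug or with a fixed anchor-drug dose plus five library-drug doses (not always all listed) in √10 steps, and nuclei were counted after 5 days.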

A-427 = tested on: A-427
Procedure, shortened: as §1

ABC-1 = tested on: ABC-1
Procedure, shortened: as §1

BEN = tested on: BEN
Procedure, shortened: as §1

CAL-12T = tested on: CAL-12T
Procedure, shortened: as §1

H3255 = tested on: H3255
Procedure, shortened: as §1

LC-2-ad = tested on: LC-2-ad
Procedure, shortened: as §1

LCLC-97TM1 = tested on: LCLC-97TM1
Procedure, shortened: as §1

NCI-H1650 = tested on: NCI-H1650
Procedure, shortened: as §1

NCI-H1651 = tested on: NCI-H1651
Procedure, shortened: as §1

NCI-H1915 = tested on: NCI-H1915
Procedure, shortened: as §1

Cc1sc2c(c1C)C(c1ccc(Cl)cc1)=N[C@@H](CC(=O)OC(C)(C)C)c1nnc(C)n1-2 [JQ1] + Cc1cc(Nc2cc(N3CCN(C)CC3)nc(Sc3ccc(NC(=O)C4CC4)cc3)n2)n[nH]1 [Tozasertib] (partner 0.1 µM)
relative viability (201T; first compound 0.04 µM): 0.971
relative viability (201T; first compound 0.1265 µM): 0.651
relative viability (201T; first compound 0.4 µM): 0.613
relative viability (201T; first compound 1.265 µM): 0.566
relative viability (201T; first compound 4 µM): 0.383
relative viability (A-427; first compound 0.04 µM): 0.195
relative viability (A-427; first compound 0.1265 µM): 0.188
relative viability (A-427; first compound 0.4 µM): 0.173
relative viability (A-427; first compound 1.265 µM): 0.131
relative viability (A-427; first compound 4 µM): 0.125
relative viability (ABC-1; first compound 0.04 µM): 0.187
relative viability (ABC-1; first compound 0.1265 µM): 0.18
relative viability (ABC-1; first compound 0.4 µM): 0.196
relative viability (ABC-1; first compound 1.265 µM): 0.175
relative viability (ABC-1; first compound 4 µM): 0.179
relative viability (BEN; first compound 0.04 µM): 0.57
relative viability (BEN; first compound 0.1265 µM): 0.535
relative viability (BEN; first compound 0.4 µM): 0.5
relative viability (BEN; first compound 1.265 µM): 0.365
relative viability (BEN; first compound 4 µM): 0.28
relative viability (CAL-12T; first compound 0.04 µM): 0.274
relative viability (CAL-12T; first compound 0.1265 µM): 0.238
relative viability (CAL-12T; first compound 0.4 µM): 0.24
relative viability (CAL-12T; first compound 1.265 µM): 0.132
relative viability (CAL-12T; first compound 4 µM): 0.122
relative viability (H3255; first compound 0.04 µM): 0.65
relative viability (H3255; first compound 0.1265 µM): 0.625
relative viability (H3255; first compound 0.4 µM): 0.64
relative viability (H3255; first compound 1.265 µM): 0.426
relative viability (H3255; first compound 4 µM): 0.204
relative viability (LC-2-ad; first compound 0.04 µM): 0.45
relative viability (LC-2-ad; first compound 0.1265 µM): 0.351
relative viability (LC-2-ad; first compound 0.4 µM): 0.351
relative viability (LC-2-ad; first compound 1.265 µM): 0.297
relative viability (LC-2-ad; first compound 4 µM): 0.232
relative viability (LCLC-97TM1; first compound 0.04 µM): 0.197
relative viability (LCLC-97TM1; first compound 0.1265 µM): 0.223
relative viability (LCLC-97TM1; first compound 0.4 µM): 0.171
relative viability (LCLC-97TM1; first compound 1.265 µM): 0.116
relative viability (LCLC-97TM1; first compound 4 µM): 0.146
relative viability (NCI-H1650; first compound 0.04 µM): 0.355
relative viability (NCI-H1650; first compound 0.1265 µM): 0.289
relative viability (NCI-H1650; first compound 0.4 µM): 0.284
relative viability (NCI-H1650; first compound 1.265 µM): 0.124
relative viability (NCI-H1650; first compound 4 µM): 0.135
relative viability (NCI-H1651; first compound 0.04 µM): 0.69
relative viability (NCI-H1651; first compound 0.1265 µM): 0.683
relative viability (NCI-H1651; first compound 0.4 µM): 0.672
relative viability (NCI-H1651; first compound 1.265 µM): 0.31
relative viability (NCI-H1651; first compound 4 µM): 0.24
relative viability (NCI-H1915; first compound 0.04 µM): 0.439
relative viability (NCI-H1915; first compound 0.1265 µM): 0.344
relative viability (NCI-H1915; first compound 0.4 µM): 0.325
relative viability (NCI-H1915; first compound 1.265 µM): 0.218
